In series [1] the test system is Smn protein in SMA patient fibroblast cells (GM03813). As to the kind of experiment: Smn protein assay in cultured cells (SMN HTRF). The series is classed as cell-based, human. Conditions: SMA patient fibroblast cells, 48 hours; for EC1.5x for Smn protein expression: 7-point concentration curve, SMN HTRF, concentration producing 1.5 times Smn protein vs DMSO vehicle control; for maximum fold (Fold) increase of Smn protein: 7-point concentration data, fold relative to vehicle control. The procedure, abridged: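 Read-out: HTRF 665/620 nm ratio, blank-subtracted as ΔF, then expressed as fold over DMSO vehicle. Fibroblasts from SMA patients were exposed to compounds for 48 h (7 points, 3.16-fold steps, triplicates). Values are EC1.5× and maximum fold Smn increase.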

Series [2] has as its system SMN2 minigene mRNA (SMN2-A minigene) in HEK293H cells. Put plainly: SMN2 minigene mRNA splicing RT-qPCR assay in cultured cells. The series is classed as cell-based, human. The following applies: Homo sapiens, HEK293-H; concentration increasing full length SMN2 mRNA 1.5-fold relative to vehicle-treated cells; HEK293H cells with SMN2-A minigene, 24 hours, 7-point concentration data; read-out: EC1.5x for production of full length SMN2 mRNA. The procedure, abridged:
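Read-out: minigene-specific full-length (exon 7-included) SMN2 mRNA by one-step multiplex RT-qPCR, normalized to GAPDH and divided by vehicle-treated level. Stable SMN2-A minigene HEK293H cells, 24 h compound exposure, 7 concentrations in duplicate. EC1.5× = concentration raising FL mRNA 1.5-fold.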

In the case of `Cc1nc2c(F)cc(-c3cc(=O)n4cc(C5=CCN(C)CC5)ccc4n3)cc2o1` [Compound 300, 2-(4-fluoro-2-methyl-1,3-benzoxazol-6-yl)-7-(1-methyl-1,2,3,6-tetrahydropyridin-4-yl)-4H-pyrido[1,2-a]pyrimidin-4-one], the melting point was 178 to 181 °C. Besides, in series [1], the “EC1.5x for Smn protein expression” value is recorded as “**** (an EC1.5x≤0.3 μM is indicated by four stars (****))” and the “maximum fold (Fold) increase of Smn protein” value (from here on “maximum fold (Fold) increase”) was “***** (a fold increase >1.65 is indicated by five stars (*****))”. Besides, in series [2], the EC (1.5-fold increase) is under 0.1 µM.

In turn, `COc1ccc(-c2cc(=O)n3cc(N4C[C@H]5CCCN[C@H]5C4)ccc3n2)cc1F` [Compound 301, 2-(3-fluoro-4-methoxyphenyl)-7-[(4aR,7aR)-octahydro-6H-pyrrolo[3,4-b]pyridin-6-yl]-4H-pyrido[1,2-a]pyrimidin-4-one] came in with a melting point of 194 to 201 °C. For the same compound, in series [1], the “maximum fold (Fold) increase” value is listed as “* (A maximum fold increase of ≤1.2 is indicated by one star (*))”. Also, the EC (1.5-fold increase) in series [2] was in the range of 1 to 3 µM.

In turn, `Cc1nc2ccc(-c3cc(=O)n4cc(C5=CCN(C)CC5)ccc4n3)cc2o1` [Compound 303, 2-(2-methyl-1,3-benzoxazol-6-yl)-7-(1-methyl-1,2,3,6-tetrahydropyridin-4-yl)-4H-pyrido[1,2-a]pyrimidin-4-one] had a melting point of 132 to 135 °C. In series [1], the “EC1.5x for Smn protein expression” value is on record as “**** (an EC1.5x≤0.3 μM is indicated by four stars (****))”; the “maximum fold (Fold) increase” value was “**** (a fold increase between >1.5 and ≤1.65 is indicated by four stars (****))”. Further, the EC (1.5-fold increase) in series [2] was under 0.1 µM.

Turning to `CCN1CC=C(c2ccc3nc(-c4ccc5nc(C)oc5c4)cc(=O)n3c2)CC1` [Compound 304, 7-(1-ethyl-1,2,3,6-tetrahydropyridin-4-yl)-2-(2-methyl-1,3-benzoxazol-6-yl)-4H-pyrido[1,2-a]pyrimidin-4-one], the melting point fell in the range of 128 to 131 °C. In series [1], the “EC1.5x for Smn protein expression” value is “**** (an EC1.5x≤0.3 μM is indicated by four stars (****))” and the “maximum fold (Fold) increase” value is “***** (a fold increase >1.65 is indicated by five stars (*****))”. Moreover, the EC (1.5-fold increase) in series [2] was under 0.1 µM.

Regarding `Cc1nc2c(F)cc(-c3cc(=O)n4cc(N5CCNCC5)ccc4n3)cc2o1` [Compound 305, 2-(4-fluoro-2-methyl-1,3-benzoxazol-6-yl)-7-(piperazin-1-yl)-4H-pyrido[1,2-a]pyrimidin-4-one], the melting point lay in the range of 184 to 186 °C. In series [1], the “EC1.5x for Smn protein expression” value was “**** (an EC1.5x≤0.3 μM is indicated by four stars (****))” and the “maximum fold (Fold) increase” value is recorded as “***** (a fold increase >1.65 is indicated by five stars (*****))”. Moreover, the EC (1.5-fold increase) in series [2] was under 0.1 µM.

`Cc1nc2c(F)cc(-c3cc(=O)n4cc(N5CCN(C)[C@@H](C)C5)ccc4n3)cc2o1` [Compound 307, 7-[(3S)-3,4-dimethylpiperazin-1-yl]-2-(4-fluoro-2-methyl-1,3-benzoxazol-6-yl)-4H-pyrido[1,2-a]pyrimidin-4-one] yielded a melting point of 194 to 196 °C. In series [1], the “EC1.5x for Smn protein expression” value was “**** (an EC1.5x≤0.3 μM is indicated by four stars (****))”; the “maximum fold (Fold) increase” value is “**** (a fold increase between >1.5 and ≤1.65 is indicated by four stars (****))”. Further, the EC (1.5-fold increase) in series [2] is under 0.1 µM.

Compound `CCN1CCN(c2ccc3nc(-c4cc(F)c5nc(C)oc5c4)cc(=O)n3c2)CC1` [Compound 309, 7-(4-ethylpiperazin-1-yl)-2-(4-fluoro-2-methyl-1,3-benzoxazol-6-yl)-4H-pyrido[1,2-a]pyrimidin-4-one] showed a melting point of 212 to 214 °C. Also, in series [1], the “EC1.5x for Smn protein expression” value is reported as “**** (an EC1.5x≤0.3 μM is indicated by four stars (****))”; the “maximum fold (Fold) increase” value was “**** (a fold increase between >1.5 and ≤1.65 is indicated by four stars (****))”. The EC (1.5-fold increase) in series [2] is under 0.1 µM.

With `CCCN1CCN(c2ccc3nc(-c4cc(F)c5nc(C)oc5c4)cc(=O)n3c2)CC1` [Compound 310, 2-(4-fluoro-2-methyl-1,3-benzoxazol-6-yl)-7-(4-propylpiperazin-1-yl)-4H-pyrido[1,2-a]pyrimidin-4-one], the melting point is 175 to 178 °C. Moreover, in series [1], the “EC1.5x for Smn protein expression” value is “*** (an EC1.5× between >0.3 μM and ≤1 μM is indicated by three stars (***))”; the “maximum fold (Fold) increase” value is “*** (a fold increase between >1.35 and ≤1.5 is indicated by three stars (***))”. The EC (1.5-fold increase) in series [2] is under 0.1 µM.

Compound `CCN1C[C@@H]2CN(c3ccc4nc(-c5ccc(OC)c(F)c5)cc(=O)n4c3)C[C@@H]2C1` [Compound 311, 7-[(3aR,6aS)-5-ethylhexahydropyrrolo[3,4-c]pyrrol-2(1H)-yl]-2-(3-fluoro-4-methoxyphenyl)-4H-pyrido[1,2-a]pyrimidin-4-one] yielded a melting point of 157 to 167 °C. Also, the “maximum fold (Fold) increase” value in series [1] is “** (a fold increase between >1.2 and ≤1.35 is indicated by two stars (**))”. Further, the EC (1.5-fold increase) in series [2] was 0.1 to 0.3 µM.

`COc1ccc(-c2cc(=O)n3cc(C4=CCNCC4)cc(C)c3n2)cc1F` [Compound 312, 2-(3-fluoro-4-methoxyphenyl)-9-methyl-7-(1,2,3,6-tetrahydropyridin-4-yl)-4H-pyrido[1,2-a]pyrimidin-4-one]: the melting point lay in the range of 211 to 215 °C. In addition, in series [1], the “EC1.5x for Smn protein expression” value is “**** (an EC1.5x≤0.3 μM is indicated by four stars (****))”; the “maximum fold (Fold) increase” value was “**** (a fold increase between >1.5 and ≤1.65 is indicated by four stars (****))”. For the same compound, in series [2], the EC (1.5-fold increase) is under 0.1 µM.

The compound `COc1ccc(-c2cc(=O)n3cc(N4C[C@H]5CCCN(C)[C@H]5C4)ccc3n2)cc1F` [Compound 313, 2-(3-fluoro-4-methoxyphenyl)-7-[(4aR,7aR)-1-methyloctahydro-6H-pyrrolo[3,4-b]pyridin-6-yl]-4H-pyrido[1,2-a]pyrimidin-4-one] came in with a melting point of 223 to 227 °C. Besides, the “maximum fold (Fold) increase” value in series [1] is “* (A maximum fold increase of ≤1.2 is indicated by one star (*))”. Also, the EC (1.5-fold increase) in series [2] was in the range of 1 to 3 µM.

`COc1ccc(-c2cc(=O)n3cc(N4CCN[C@H](C)C4)cc(C)c3n2)cc1OC` [Compound 314, 2-(3,4-dimethoxyphenyl)-9-methyl-7-[(3R)-3-methylpiperazin-1-yl]-4H-pyrido[1,2-a]pyrimidin-4-one] displayed a melting point of 177 to 184 °C. Moreover, in series [1], the “EC1.5x for Smn protein expression” value is “*** (an EC1.5× between >0.3 μM and ≤1 μM is indicated by three stars (***))”; the “maximum fold (Fold) increase” value was “**** (a fold increase between >1.5 and ≤1.65 is indicated by four stars (****))”. Further, the EC (1.5-fold increase) in series [2] is under 0.1 µM.

The compound `COc1ccc(-c2cc(=O)n3cc(C4=CCN(C)CC4)cc(C)c3n2)cc1F` [Compound 315, 2-(3-fluoro-4-methoxyphenyl)-9-methyl-7-(1-methyl-1,2,3,6-tetrahydropyridin-4-yl)-4H-pyrido[1,2-a]pyrimidin-4-one] showed a melting point of 184 to 190 °C. Moreover, the “maximum fold (Fold) increase” value in series [1] was “*** (a fold increase between >1.35 and ≤1.5 is indicated by three stars (***))”. The EC (1.5-fold increase) in series [2] is under 0.1 µM.

Source of the values: patent publication US11753407B2, “Compounds for treating spinal muscular atrophy” (PTC Therapeutics, Inc., priority 2012, dated 2023).
